Structures can show the parent of a compound that is named as a salt. Where two headings read alike, the source gives them in different places.
Tests used:
5-HT1BR = 5-HT1BR (Homo sapiens (Human), UniProt P28222); assay: 5-HT1BR cAMP secondary messenger agonist assay (HitHunter, CHO-K1); assay type: cell-based
Excerpt: The 5-HT1BR cAMP secondary messenger agonist assay used a panel of CHO-K1 cell lines stably expressing non-tagged GPCRs that endogenously signal through cAMP. Hit Hunter® cAMP assays monitored the activation of a GPCR via Gi and Gs secondary messenger signaling in a homogenous, non-imaging assay format using DiscoverX Enzyme Fragment Complementation (EFC) with β-galactosidase as the functional endpoint.
The enzyme was split into two complementary portions: Enzyme Acceptor (EA) and Enzyme Donor (ED). Exogenously introduced ED fused to cAMP (ED-cAMP) competed with endogenously generated cAMP for binding to an anti-cAMP-specific antibody. Active β-galactosidase was formed by complementation of exogenous EA to any unbound ED-cAMP.
Cell lines were expanded from freezer stocks according to standard procedures. Cells were seeded in a total volume of 20 μL into white walled, 384-well microplates and incubated at 37° C. for the appropriate time prior to testing. cAMP modulation was determined using the DiscoverX HitHunter cAMP XS+ assay.
For agonist determination, cells were incubated with sample (in the presence of EC80 forskolin to induce response if measuring Gi secondary messenger signaling). Media was aspirated from cells and replaced with 15 μL 2:1 HBSS/10 mM Hepes:cAMP XS+ Ab reagent. Intermediate dilution of sample stocks was performed to generate 4×sample in assay buffer (optionally containing 4×EC80 forskolin). 5 μL of 4×sample was added to cells and incubated at 37° C. or room temperature for 30 or 60 minutes, as appropriate. Final assay vehicle concentration was 1%.

[1] = molecular target: human 5-HT transporter (hSERT) (Homo sapiens (Human), UniProt P31645); assay: Human serotonin transporter  assay ([3H]imipramine radioligand, CHO cells); assay type: binding; settings: for IC50: 2 nM [3H]imipramine; for Ki: Cheng Prusoff equation
Method: Benzofuran derivatives were evaluated for inhibiting the human 5-HT transporter (hSERT) as expressed in CHO cells using an antagonist radioligand assay (Tatsumi, M. et al. (1999), Eur. J Pharmacol., 368: 277-283). […] Test compounds were assayed in three trials at […], and 0.94868 μM.

[2] = molecular target: T1, serotonin (5-HT) transporter (SERT) (Rattus norvegicus (Rat), UniProt P31652); assay: Rat synaptosome SERT [3H]5-HT release assay; settings: 5 nM [3H]5-HT
[3] = molecular target: T1, serotonin (5-HT) transporter (SERT); assay: Rat synaptosome SERT [3H]5-HT uptake inhibition assay; settings: 5 nM [3H]5-HT
[4] = Salt screening experiments (PXRD result); assay type: physicochemical; settings: S-5-MAPB Pure Enantiomer (Pattern 1A Enantiomer) + counterion 1:1 molar ratio, 40° C.
MAO-A = MAO-A (Homo sapiens (Human), UniProt P21397); assay: MAO-A inhibition assay (kynuramine); assay type: biochemical
Sequence of MAO-A (P21397 whole entry, looked up, species assumed): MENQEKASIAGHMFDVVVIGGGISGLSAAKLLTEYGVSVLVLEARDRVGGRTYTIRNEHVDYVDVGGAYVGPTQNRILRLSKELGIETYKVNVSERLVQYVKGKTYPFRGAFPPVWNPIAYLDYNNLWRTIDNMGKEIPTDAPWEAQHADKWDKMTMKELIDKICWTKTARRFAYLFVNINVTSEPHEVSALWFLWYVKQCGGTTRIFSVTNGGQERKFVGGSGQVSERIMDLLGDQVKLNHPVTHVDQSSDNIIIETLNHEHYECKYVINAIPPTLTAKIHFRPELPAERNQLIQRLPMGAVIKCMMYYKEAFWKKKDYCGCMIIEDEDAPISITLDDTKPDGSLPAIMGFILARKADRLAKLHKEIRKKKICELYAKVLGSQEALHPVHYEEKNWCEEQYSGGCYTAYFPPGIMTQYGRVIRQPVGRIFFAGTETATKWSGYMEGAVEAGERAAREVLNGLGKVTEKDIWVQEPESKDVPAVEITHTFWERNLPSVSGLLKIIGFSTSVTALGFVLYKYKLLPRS
Method: MAO-A and test compounds were preincubated at 37° C. for 15 minutes before substrate addition. Test compounds were assayed at 10 concentrations with the highest concentration either 30 or 10 μM and subsequent concentrations using a 0.33 dilution factor. The reaction was initiated by addition of kynuramine and incubated at 37° C. for 30 minutes. The reaction was terminated by addition of NaOH. The amount of 4-hydroquioline formed was determined through spectrofluorimetric readout with the emission detection at 380 nm and excitation wavelength 310 nm.

healthy human individual = assay: Human effects of non-racemic 5-MAPB, self-reported ratings (Good, Bad, Open); assay type: in vivo; settings: averaged from all sessions, 54 mg 5-MAPB HCl oral in two halves
Method: The effects of non-racemic 5-MAPB HCl were tested by a healthy human individual at four different ratios of enantiomers plus the racemate as a control: • 54 mg S and 0 mg R (100% S) • 47 mg Sand 7 mg R (87% S) • 36 mg S and 18 mg R (67% S) • 27 mg S and 27 mg R (50% S) • 7 mg S and 47 mg R (13% S)
Two trials were carried out at each ratio, except for 13% S where only one was conducted. Trials were at least 72 h apart.
5-MAPB HCl was dissolved in 1.5 ml distilled water and consumed in two halves, separated by 1 hour. Starting at 3 hours after administration, tablets of 250 mg ascorbic acid and capsules of 300 mg alpha lipoic acid were taken ad libitum (approximately every hour for a total of 4 administrations).
Measurements were made approximately every 2 hours until post 6 hours and the maximum ratings per session were analyzed. Additionally, an index of good drug effects versus emotional openness, calculated as (Open−Good)/(200, the theoretical maximum of Open+Good), was constructed at each time point and the maximum analyzed. In healthy volunteers, Good Ratings can be considered a predictor of abuse liability. Accordingly, this index can be used as an indicator of the balance of a therapeutic effect (emotional openness) vs abuse liability.
Historic data of two trials 50 mg RS-5-MAPB Cl from the same individual were also included in the analysis for comparison.

[5] = [3H]5-HT release via SERT EC50 (nM)
[6] = Inhibition of [3H]5-HT Uptake at SERT IC50 (nM)
[7] = read-out: [3H]5-HT release via SERT EC50
[8] = read-out: Inhibition of [3H]5-HT Uptake at SERT IC50

`CNC(C)C(=O)c1ccc2occc2c1` (single isomer, unassigned) [Enantiomer 2 BK-5-MAPB, 1-(benzofuran-5-yl)-2-(methylamino) propan-1-one] showed an EC50 (5-HT1BR; 5HT1B Agonist (μM)) of 3.07 µM.
With `CNC(C)C(=O)c1ccc2occc2c1` (single isomer, unassigned; (+)) [(+)-BK-5-MAPB, 1-(benzofuran-5-yl)-2-(methylamino) propan-1-one] the IC50 ([1]; SERT IC50 (μM)) was 38 µM, the Ki ([1]; SERT Ki (μM)) was 17 µM and the EC50 [2, 5] was 439 ± 72.5 nM. The “Hill Coef.” value (5-HT1BR) was 1.05, the EC50 (5-HT1BR; 5-HT1BR EC50 (μM)) was 3.07 µM and the IC50 [3, 6] was 2090 ± 151 nM.
In the case of `CNC(C)C(=O)c1ccc2occc2c1` (single isomer, unassigned) [Enantiomer 1 BK-5-MAPB, 1-(benzofuran-5-yl)-2-(methylamino) propan-1-one], the EC50 (5-HT1BR; 5HT1B Agonist (μM)) is reported as 0.08 µM.
In the case of `O=C(O)/C=C\C(=O)O` [Maleic], the “PXRD Result” value ([4]; solvent Acetone) is reported as “N/A (gel)”, the “PXRD Result” value ([4]; solvent EtOH:water 90:10) is reported as “N/A (gel)” and the “PXRD Result” value ([4]; solvent MeOH:water 90:10) is reported as “N/A (gel)”. For the same molecule, the “PXRD Result” value ([4]; solvent THF) was “N/A (gel)”.
In the case of `N=C(N)NCCC[C@H](N)C(=O)O` [L-Arginine], the “PXRD Result” value ([4]; solvent Acetone) is reported as “N/A (gel)”, the “PXRD Result” value ([4]; solvent EtOH:water 90:10) is reported as “N/A (gel)” and the “PXRD Result” value ([4]; solvent MeOH:water 90:10) is reported as “N/A (gel)”. For the same molecule, the “PXRD Result” value ([4]; solvent THF) was “N/A (gel)”.
In the case of `CCC(NC)C(=O)c1ccc2occc2c1` (racemic) [rac-BK-5-MBPB, 1-(benzofuran-5-yl)-2-(methylamino)butan-1-one hydrochloride], the “Hill Coef.” value (5-HT1BR) is reported as 1.01 and the EC50 (5-HT1BR; 5-HT1BR EC50 (μM)) is reported as 19.6 µM.
In the case of `CN[C@@H](C)Cc1ccc2ccoc2c1` [Compound S-6-MAPB, (S)-1-(benzofuran-6-yl)-N-methylpropan-2-amine], the IC50 ([1]; SERT IC50 (μM)) is reported as 6.7 µM, the EC50 [2, 5] is reported as 20.6 ± 2.7 nM and the “Hill Coef.” value (5-HT1BR) is reported as 1.21. For the same molecule, the EC50 (5-HT1BR; 5-HT1BR EC50 (μM)) was 0.102 µM, the EC50 (5-HT1BR; 5HT1B Agonist (μM)) was 0.1 µM and the IC50 [3, 6] was 90.9 ± 5.9 nM. It also gave an IC50 (MAO-A) of 5390 nM.
With `CCC(NC)C(=O)c1ccc2occc2c1` (single isomer, unassigned; (-)) [(−)-BK-5-MBPB, 1-(benzofuran-5-yl)-2-(methylamino) butan-1-one] the IC50 ([1]; SERT IC50 (μM)) was 1.6 µM, the Ki ([1]; SERT Ki (μM)) was 0.72 µM and the “Hill Coef.” value (5-HT1BR) was 1.6241. The EC50 (5-HT1BR; 5-HT1BR EC50 (μM)) was 6.61 µM.
Molecule “1-(benzofuran-6-yl)-N-methylbutan-2-amine [Compound S-6-MBPB]” has an IC50 ([1]; read-out: SERT IC50) of 2.7 µM, a Ki ([1]; read-out: SERT Ki) of 1.2 µM and an EC50 [2, 7] of 54.1 ± 33.9 nM. It also gave an IC50 [3, 8] of 217 ± 45.8 nM.
With `O=[N+]([O-])O` [HNO3] the “PXRD Result” value ([4]; solvent Acetone) was “N/A (gel)”, the “PXRD Result” value ([4]; solvent EtOH:water 90:10) was “N/A (gel)” and the “PXRD Result” value ([4]; solvent MeOH:water 90:10) was “N/A (gel)”. The “PXRD Result” value ([4]; solvent THF) was “N/A (gel)”.
With `CNC(C)C(=O)c1ccc2occc2c1` (single isomer, unassigned; (-)) [(−)-BK-5-MAPB, 1-(benzofuran-5-yl)-2-(methylamino) propan-1-one] the IC50 ([1]; SERT IC50 (μM)) was 6.9 µM, the Ki ([1]; SERT Ki (μM)) was 3.2 µM and the EC50 [2, 5] was 80 ± 13.7 nM. The “Hill Coef.” value (5-HT1BR) was 1.5, the EC50 (5-HT1BR; 5-HT1BR EC50 (μM)) was 0.0777 µM and the IC50 [3, 6] was 284 ± 11.9 nM.
With `CCC(NC)C(=O)c1ccc2ccoc2c1` (single isomer, unassigned; (+)) [(+)-BK-6-MBPB, 1-(benzofuran-6-yl)-2-(methylamino)butan-1-one] the IC50 ([1]; SERT IC50 (μM)) was 29 µM, the Ki ([1]; SERT Ki (μM)) was 13 µM and the EC50 (5-HT1BR; 5-HT1BR EC50 (μM)) was over 30 µM.
“1-(benzofuran-6-yl)-N-methylbutan-2-amine [Compound R-6-MBPB]” gave an IC50 ([1]; read-out: SERT IC50) of 5.7 µM, a Ki ([1]; read-out: SERT Ki) of 2.6 µM and an EC50 [2, 7] of 172 ± 82.2 nM. It also gave an IC50 [3, 8] of 702 ± 262 nM.
Molecule `CN[C@@H](C)Cc1ccc2occc2c1` [100% S-5-MAPB] has a Bad (healthy human individual; maximum 0-100 rating of bad drug effects) of 1%, an Open (healthy human individual; maximum 0-100 rating of emotional openness) of 65% and a Good (healthy human individual; maximum 0-100 rating of good drug effects) of 55%.
